Measured values from US8445510B2, “Fused bicyclic kinase inhibitors” (OSI Pharmaceuticals, LLC, priority 2011, dated 2013).
pIC50: −log10 of the molar value.

What was measured:
[1] = biological target: T1, Aurora B (Homo sapiens, UniProt Q96GD4); assay: Aurora B cell mechanistic assay (HT-29), phospho-Histone H3 (Ser10) ELISA; assay type: cell-based; settings: HT-29 cell line; inhibition of phospho-Histone H3 (Ser10); at least duplicate experiments (italicized if single experiment); read-out: Aurora B mech IC50
T1 construct: HT-29 cells grown in complete growth media
In short: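 HT-29 cells treated 1 h at 37 °C with serially diluted compound, then 100 nM Calyculin A added for 30 min. Lysates assayed by phospho-Histone H3 (Ser10) ELISA at 450 nm; normalized to DMSO (100%) and a reference Aurora B inhibitor (full inhibition); IC50 by four-parameter fit.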

[2] = tested on: Karpas-299 cells; assay: Karpas-299 cell proliferation assay (CellTiter-Glo); assay type: cell-based; settings: Homo sapiens, 72 h; Karpas-299 cell line (NPM-ALK); 3 days incubation; at least duplicate experiments; read-out: Prolif. IC50

T1 sequence (Q96GD4 whole entry): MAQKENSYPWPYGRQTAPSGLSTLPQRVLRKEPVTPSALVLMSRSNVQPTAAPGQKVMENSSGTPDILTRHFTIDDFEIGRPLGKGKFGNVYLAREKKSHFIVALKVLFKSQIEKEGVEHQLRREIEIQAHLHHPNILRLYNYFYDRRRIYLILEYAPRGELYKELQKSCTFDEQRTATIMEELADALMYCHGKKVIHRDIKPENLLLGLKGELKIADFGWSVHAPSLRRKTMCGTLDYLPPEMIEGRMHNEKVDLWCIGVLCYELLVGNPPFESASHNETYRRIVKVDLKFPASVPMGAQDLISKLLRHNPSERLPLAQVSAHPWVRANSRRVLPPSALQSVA

For `COc1ccc(F)c(Cl)c1[C@@H](C)c1c[nH]c2ncc(-c3cn([C@H]4CC[C@H](C(=O)N(C)C)CC4)nc3C)cc12` [Example 23, trans-4-(4-{3-[(1S)-1-(2-chloro-3-fluoro-6-methoxyphenyl)ethyl]-1H-pyrrolo[2,3-b]pyridin-5-yl}-3-methyl-1H-pyrazol-1-yl)-N,N-dimethylcyclohexanecarboxamide], the pIC50 [1] was 6.70 to 7.30 and the pIC50 [2] was no less than 7.30.
`CNC(=O)[C@H]1CC[C@H](n2nc(C)c(-c3cnc4[nH]cc([C@H](C)c5c(OC)ccc(F)c5Cl)c4c3)c2C)CC1` [Example 24, trans-4-(4-{3-[(1S)-1-(2-Chloro-3-fluoro-6-methoxyphenyl)ethyl]-1H-pyrrolo[2,3-b]pyridin-5-yl}-3,5-dimethyl-1H-pyrazol-1-yl)-N-methylcyclohexanecarboxamide] was tested, and the pIC50 [1] was less than 6.00 and the pIC50 [2] was no less than 7.30.
`COc1ccc(F)c(Cl)c1[C@@H](C)c1c[nH]c2ncc(-c3cn([C@H]4CC[C@H](O)CC4)nc3C)cc12` [Example 28, trans-4-(4-{3-[(1S)-1-(2-Chloro-3-fluoro-6-methoxyphenyl)ethyl]-1H-pyrrolo[2,3-b]pyridin-5-yl}-3-methyl-1H-pyrazol-1-yl)cyclohexanol] was tested, and the pIC50 [1] was 6.70 to 7.30 and the pIC50 [2] was no less than 7.30.
